According to a melting point compilation (Tetko et al.; mined from patent text by program, amines drawn as free bases though some values may be those of a salt):

Structure (SMILES)	melting point [°C]
CN(C)CCN(C(=O)c1cc([N+](=O)[O-])ccc1Br)c1ccnc2cc3c(cc12)OCO3	204 to 205
Cn1ncc(N)c1C(N)=O	158 to 160
COc1cc2c(cc1OC)C(N(CC(=O)O)C(=O)C(CSC(C)=O)CSC(C)=O)CC2 (configuration not stated)	140 to 143
Cc1nn(C)c2c1N(C(=O)CN(C(C)C)C(C)C)c1ccccc1NC2=O	154 to 156
CC(C)(C#N)Cc1ccccc1CC(C)(C)C#N	76 to 80
CC(=O)OC1CCN(Cc2nc(-c3cc(C(C)(C)C)c(O)c(C(C)(C)C)c3)cs2)CC1	160 to 161
COc1ncnc(OC)c1N(C(=O)CCl)C(C)n1cccn1 (configuration not stated)	124 to 126
Brc1cc(Br)c2c(c1)CCN2	164 to 165
CC(C)(C)NS(=O)(=O)c1cccc2c1C(O)CCC2 (configuration not stated)	100 to 111
COC(=O)CCCc1nc2c([nH]1)c(=O)n(C)c(=O)n2C	200 to 204
Nc1ccc2c(c1)OCC(=S)N2	205 to 211
CNC(=O)C1(c2ccc([N+](=O)[O-])cc2)C2C=CC(C2)C1C(N)=O (configuration not stated)	164 to 166
Cc1c(C(F)(F)F)ncn(-c2c(Cl)cc(C(F)(F)F)cc2C#N)c1=O	154 to 155
CCOC(=O)c1cc(Cl)c(-n2nc(CC)c(C#N)c2N)c(Cl)c1	173 to 175
Cc1oc(-c2ccco2)nc1CCc1ccc(CCCCC2OC(=O)NC2=O)cc1 (configuration not stated)	140 to 141
CCCCCCCCCCOc1ccc2cc(C#CC(C)O)ccc2c1 (configuration not stated)	74 to 75
CCCCn1cc(CCN(C)C)c2c(OCc3ccccc3)cc(F)cc21	86 to 89
Cc1cc(Br)ccc1NC(=O)CC(=O)O	163 to 165
CCOC(=O)c1cc2c(F)cccc2[nH]c1=O	180
Cc1cc(Br)ccc1-n1c(CF)nc2ccc([N+](=O)[O-])cc2c1=O	208 to 210
ClCCCOc1ccc(SCCCCl)cc1	112
CC(=O)SCC(C)C(=O)Nc1cncc(C(=O)O)c1 (configuration not stated)	154 to 158
Nc1ccc(F)c(Cl)c1F	58
CC1(C)CC(=O)c2cc(OCC(F)(F)F)c(OCC(F)(F)F)cc2O1	92 to 93
O=C1C=CC(=O)N1c1cccc(I)c1	154 to 155
CCOC(=O)c1sc(-n2ccc(O)cc2=O)nc1C	270 to 273

Structure (SMILES)	melting point [°C]
Cc1cc2c(cc1C13CC1CCC3=O)C(C)(C)CCC2(C)C (configuration not stated)	152 to 154
Cc1ccc([C@@H](C)NCc2ccc(O)cc2)cc1	114 to 116
COC(=O)c1cc2ccc3[nH]ccc3c2[nH]1	183 to 184
O=C1NC2CCC(Cc3ccc(O)cc3)CC2CC1CO (configuration not stated)	126 to 128
CCOC(=O)Cc1csc(NC(=O)C(N)Cc2cccs2)n1 (configuration not stated)	98 to 102
CN(C)C(=O)Sc1ccc2ccncc2c1Cl	140 to 142
CC(C)(C)OC(=O)NCC1(CC#N)CCCCC1	54 to 58
Cc1cc(Br)ccc1-n1c(C(F)(F)F)nn(C)c1=O	80 to 83
CCc1cc(O)c(C(=O)CCc2ccc3occc3c2)c(OC2OC(CO)C(O)C(O)C2O)c1 (configuration not stated)	146 to 148
CCCCCCCCCCCCCCCCCC(=O)Oc1cc(C=CC(=O)c2ccccc2)cc([N+](=O)[O-])c1O	112 to 118
CCCCCCC1CCC(c2ccc(CCCCC)cc2)OC1=O (configuration not stated)	101 to 102
CC(Cl)C(=O)c1ncc(Cl)cc1F (configuration not stated)	29 to 32
CC(C)(C)OC(=O)NC1Cc2ccccc2C2OC12 (configuration not stated)	118 to 119
CCCCCCCCCCC(=O)OC1CC(C)(C)N(CC#N)C(C)(C)C1	54
CCSC(=O)CCS(=O)(=O)CC	35 to 36
N#Cc1cccc(NCc2nc3ccc(F)cc3c(=O)n2-c2ccccc2Cl)c1	225 to 228
CCCC(C)(CCl)c1cc(Cl)nnc1Cl (configuration not stated)	68 to 69
Nc1ccc(Cl)nc1Nc1ccc2c(c1)OCO2	162 to 163
COC(=O)COc1cccc2c1CCC(Br)C2=O (configuration not stated)	76 to 77
Cc1oc(C(C)C)cc1C(=O)O	88.5
CC(CCC(=O)O)C1CCC2C3=CC=C4C(C)(C)C(O)CCC4(C)C3CCC21C (configuration not stated)	210 to 213
CCc1noc(-c2cn(-c3ccc([N+](=O)[O-])cn3)cn2)n1	228 to 229
Cc1ccc(C2C(=O)CCCC2=O)c(C)c1	143 to 145
Cc1c(Cc2ccc(Cl)cc2)sc2nc(N)[nH]c(=O)c12	300 to 320
Oc1c(Cl)cc(C2=NCCO2)cc1Cl	189 to 191

Other lines, results leading:

melting point [°C]	Structure (SMILES)
191 to 192	Cc1oc(-c2ccccc2)nc1CCOc1ccc(CC2SC(=O)NC2=O)cn1 (configuration not stated)
132 to 143	O=C(O)Cc1ccc2c(c1)C(=O)c1ccccc1CN2
133 to 138	C[C@@H](n1cnc2cc(-c3ccc(C#N)cc3)sc2c1=O)[C@](O)(Cn1cncn1)c1ccc(Cl)cc1Cl
171 to 188	CCN1CCc2ccc(OC)c(Nc3ncc(Cl)c(Nc4ccccc4S(=O)(=O)NC)n3)c2CC1
172 to 174	CCCc1nc2c(N)nc3cc(OCCCNC(=O)c4cccnc4)ccc3c2n1CC(C)C
153 to 154	FC(F)C(F)(F)Sc1nc(-c2ccccc2)c(-c2cccnc2)[nH]1
158 to 160	CCOC(=O)c1c(CN2CCCCC2)nc2cc3c(cc2c1-c1ccc(OC)c(OC)c1)OCCO3
118 to 120	COc1ccc2[nH]c(C(=O)c3ccccc3)c(NC(C)=O)c2c1OC
214 to 215	CC(=O)Nc1ccc(-c2ccc(C(C)=O)o2)cc1
93.5 to 96.8	Cc1[nH]c(C(N)=O)c(C)c1-c1ccnc(Nc2ccc(F)cc2)n1
168 to 171	Cn1cc(-c2ccccc2)c(=S)c(-c2ccccc2)c1
58 to 59	ON=Cc1cccc(OCc2ccccc2)c1
126 to 127	COc1ccc(-c2cccc(C(=O)NCCC#N)c2)c2cc(Cc3cccc(C(F)(F)F)c3)oc12
258 to 260	Nc1ccc(-c2cc(=O)cc(N3CCOCC3)o2)cc1
293 to 295	CCCN1NCc2c(C3C(=O)Nc4ccc(C(F)(F)F)cc43)ncnc21 (configuration not stated)
116 to 117	CCN(CC)CCNC(=O)c1cccc2c(=O)c(C)c(-c3cccc(Cl)c3)oc12
100 to 102	O=C(c1cccnc1)N1N=CCC1c1ccccc1 (configuration not stated)
190 to 192	CN1c2ccccc2C(=C2CCN(C(=O)OCC(Cl)(Cl)Cl)CC2)c2ccccc21
263 to 267	COc1ccc(C2C(C(=O)c3ccc(C(C)C)cc3)=C(O)C(=O)N2c2ccc(C)nn2)cc1 (configuration not stated)
110 to 113	CN(C)CCOc1c(-c2ccc(S(C)(=O)=O)cc2)cnn(-c2cccc(Cl)c2)c1=O
172 to 174	COc1cccc(CNC(=O)C(C)(C)COc2cccc3nc(C)c(C(=O)O)c(N)c23)c1
122	CC1C(=O)N(c2ccccc2)C(=S)N1Cc1ccc(Oc2ccccc2)cc1 (configuration not stated)
155 to 158	COc1ccc2c(c1)CN(C(=O)NO)N=C2Cc1c(Cl)cncc1Cl
198 to 201	Cc1nc2cnccc2n1-c1ccc(Cn2c(=O)sc3ccccc32)cc1
201 to 203	Oc1cccc(C=Cc2nc(-c3ccccc3)c(-c3ccccc3)o2)c1
172	CCOC(=O)c1ccc(N2CCC(NCC(O)COc3ccc(N=Nc4ccc([N+](=O)[O-])cc4)nc3)CC2)nc1 (configuration not stated)

melting point [°C]	Structure (SMILES)
170 to 172	C(=C(c1ccccc1)N(c1ccccc1)c1ccccc1)c1cccc2ccccc12
80 to 83	COc1ccc(C2(CCN3CCC(C(=O)c4nc5ccccc5n4Cc4ccc(F)cc4)CC3)CCN(C(=O)c3cc(OC)c(OC)c(OC)c3)C2)cc1OC (configuration not stated)
204 to 206	CC(=O)c1ccc(N2CCN(CCC(=O)O)CC2)cc1
127	Fc1ccc(Cn2c(NC3CCN(CCNc4nccs4)C3)nc3ccccc32)cc1 (configuration not stated)
131 to 132	CC(=O)c1ccc(Nc2cccc(-c3cncnc3)c2)c([N+](=O)[O-])c1
207 to 209	CNc1ccc2c(c1)N(C)C(=O)N(c1ccc(Cl)cc1)S2(=O)=O
138 to 140	COc1ccc2cc(CN(C)C(=O)c3oc4ccccc4c3C)ccc2c1Br
210 to 212	Cc1cc(C)c(-c2cn(C)c3nc(N4CCCCC4)n(C)c(=O)c23)c(C)c1
230 to 233	O=C(Nc1ccc(Cl)cn1)c1cc(F)ccc1NCC1CCNCC1
210 to 212	O=S(=O)(CC1CC1)c1nc(-c2ccccn2)c(-c2ccccn2)[nH]1
59 to 62	O=C(O)C(CCCc1ccccc1)NS(=O)(=O)c1ccc(N2CCC(c3ccccc3)CC2)cc1 (configuration not stated)
79	CNc1c([N+](=O)[O-])ccc(Sc2ccccc2)c1Cl
79 to 81	CC=CCN1C(=O)c2ccccc2Oc2ncccc21
135 to 137	C[C@H](C(O)C(c1ccc(F)cc1F)n1cncn1)S(=O)(=O)[C@@H]1CNCCN1c1ccccc1 (some centres not stated)
125 to 128	CCn1c(=O)n(CC)c2cc3c(N4CCN(C(=O)Nc5ccc(Oc6ccccc6)cc5)CC4)nncc3cc21
166 to 168	N#Cc1ccc(C2CC(n3ccnc3)c3ccccc3N2)cc1 (configuration not stated)
245 to 246	CCC(=O)Nc1c(C(=O)c2cc(Cl)ccc2[N+](=O)[O-])[nH]c2cc(Cl)ccc12
> 230	O=C1Nc2cccc(-c3cccc4c3oc3ccccc34)c2C12COc1cc3c(cc12)OCO3 (configuration not stated)
212 to 214	O=C(O)Cn1c(=O)n(S(=O)(=O)c2ccccc2)c(=O)c2ccc(Cl)cc21
144 to 146	CC(=O)N1c2ccccc2Sc2cc([N+](=O)[O-])ccc21
172	COc1ccc2[nH]c3c(C(=O)Nc4ccc(CCCCN(C)Cc5ccc(OC)c(OC)c5)cc4)cccc3c(=O)c2c1
79 to 80	CCOC(=O)c1nc(/C=C/c2ccccc2)ns1
164 to 167	CCOC(=O)/C=C/c1cnc(-c2ccc(OCc3ccccc3)c(C34CC5CC(CC(C5)C3)C4)c2)nc1
110	O=S(=O)(On1nnc2ccc(Cl)cc21)c1ccccc1
243 to 244	N#Cc1cc(C2=Nc3ccc(-n4cccc4)cc3NC(=O)C2)ccn1
